From ChEMBL document CHEMBL3045182, “Synthesis and biological evaluation of some stilbene-based analogues” (Med Chem Res, 2011)
Calls of active or inactive are those of the source. No cut-off for these calls is given here.

Experiments:
[1] = test system: Penicillium chrysogenum; assay: Antifungal activity against Penicillium chrysogenum by poison plate assay method; format: functional, organism-based
[2] = test system: Radical scavenging activity; assay: Antioxidant activity assessed as DPPH radical scavenging activity at 1000 ug/ml; format: functional
[3] = test system: Radical scavenging activity; assay: Antioxidant activity assessed as DPPH radical scavenging activity at 1500 ug/ml; format: functional
[4] = test system: Radical scavenging activity; assay: Antioxidant activity assessed as DPPH radical scavenging activity at 2500 ug/ml; format: functional
[5] = test system: Aspergillus niger; assay: Antifungal activity against Aspergillus niger by poison plate assay method; format: functional, organism-based
[6] = test system: Radical scavenging activity; assay: Antioxidant activity assessed as DPPH radical scavenging activity at 500 ug/ml; format: functional
[7] = test system: Staphylococcus aureus; assay: Antibacterial activity against Staphylococcus aureus by agar cup-plate assay method; format: functional
[8] = test system: Escherichia coli; assay: Antibacterial activity against Escherichia coli by agar cup-plate assay method; format: functional
[9] = test system: Radical scavenging activity; assay: Antioxidant activity assessed as DPPH radical scavenging activity at 20 ug/ml; format: functional
[10] = test system: Radical scavenging activity; assay: Antioxidant activity assessed as DPPH radical scavenging activity at 30 ug/ml; format: functional
[11] = test system: Radical scavenging activity; assay: Antioxidant activity assessed as DPPH radical scavenging activity at 40 ug/ml; format: functional
[12] = test system: Radical scavenging activity; assay: Antioxidant activity assessed as DPPH radical scavenging activity at 50 ug/ml; format: functional

Structure (SMILES)	inhibition zone (IZ) [1]	Activity [2]	Activity [3]	Activity [4]	inhibition zone (IZ) [5]	Activity [6]	inhibition zone (IZ) [7]	inhibition zone (IZ) [8]	Activity [9]	Activity [10]	Activity [11]	Activity [12]
Clc1ccc(/C=C/c2ccc(Cl)cc2Cl)c(Cl)c1	inactive	48.7%	50.2%	56.4%	inactive	44.6%	24 mm	inactive				
Cc1ccc(/C=C/c2ccc(Cl)cc2Cl)cc1	inactive	36.4%	37.1%	39.1%	inactive	34.8%	12 mm	inactive				
Clc1ccc(/C=C/c2ccc(Cl)cc2Cl)cc1	inactive	43.5%	45.7%	47.2%	inactive	41.3%	24 mm	inactive				
Clc1ccc(/C=C/c2ccc(Cl)c(Cl)c2)c(Cl)c1	Active	49.1%	54.2%	58%	inactive	46.5%	28 mm	inactive				
Fc1ccc(/C=C/c2ccc(F)cc2F)cc1	inactive	48%	50.3%	52.5%	inactive	45.3%	30 mm	inactive				
Cc1ccc(/C=C/c2ccc(C)cc2)cc1 [(E)-1,2-DI-P-TOLYLETHENE]	inactive	35.7%	37.1%	38%	inactive	34.9%	20 mm	inactive				
Fc1ccc(/C=C/c2ccc(Cl)cc2Cl)cc1	Active	37.1%	37.8%	39.3%	inactive	35.2%	18 mm	inactive				
COC1=CC(=O)C[C@@H](C)[C@]12Oc1c(Cl)c(OC)cc(OC)c1C2=O	Active				Active							
CC1(C)S[C@@H]2[C@H](NC(=O)Cc3ccccc3)C(=O)N2[C@H]1C(=O)O [PENICILLIN G]							40 mm	17 mm				
Clc1cccc(/C=C/c2ccc(Cl)cc2Cl)c1	Active	49.7%	56.1%	61.4%	inactive	44.7%	26 mm	inactive				
Fc1ccc(/C=C/c2cccc(Cl)c2)cc1	Active	35.6%	37.8%	39.8%	inactive	33%	22 mm	inactive				
Fc1ccc(/C=C/c2ccc(F)c(F)c2)cc1	inactive	44.6%	46.5%	48.1%	inactive	43.9%	36 mm	inactive				
Fc1ccc(/C=C/c2ccc(F)cc2)cc1	Active	37.4%	44.9%	53.8%	inactive	35.2%	24 mm	inactive				
Cc1ccc(/C=C/c2ccc(F)cc2)cc1	inactive	36.4%	39.5%	45.4%	inactive	35.4%	inactive	inactive				
Fc1ccc(/C=C/c2cccc(F)c2)cc1	Active	42.1%	47.1%	49.5%	inactive	40.5%	28 mm	inactive				
O=C1O[C@H]([C@@H](O)CO)C(O)=C1O									80.9%	86.7%	92%	94.7%
Fc1ccc(/C=C/c2ccc(Cl)cc2)cc1	Active	40.8%	41.6%	45.5%	inactive	37.4%	20 mm	inactive				
